Results on one cell line are retold here after the supplement of paper PMC10307832.

Holding throughout (assay): relative viability (nuclei count vs DMSO), 5 days (fraction); higher = more cells survive
Compound in the assay “CUDC-101 + Pictilisib”: C#Cc1cccc(Nc2ncnc3cc(OC)c(OCCCCCCC(=O)NO)cc23)c1 [CUDC-101] + CS(=O)(=O)N1CCN(Cc2cc3nc(-c4cccc5[nH]ncc45)nc(N4CCOCC4)c3s2)CC1 [Pictilisib] (partner 1 µM)
A digest of the protocol:
(§1)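 A single step with final 0.05% Triton X-100, 1% formaldehyde and 1 ug/ml Hoechst fixed the cells and stained nuclei 5 days after treatment. Lung cancer cell lines in 1536-well plates had been treated by pin tool the day after seeding with one drug alone or a fixed anchor-drug dose plus five library-drug doses (not always all listed) in √10 steps, and nuclei were counted on 4× images. Relative viability is the ratio of nuclei in treated wells to nuclei in vehicle wells, taken as the median of duplicate plates.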

Compound in assay [1]: C1=CC=C2C(=C1)N=C(S2)C(C#N)C3=NC(=NC=C3)NCCC4=CN=CC=C4 + CC1(C)CCC(c2ccc(Cl)cc2)=C(CN2CCN(c3ccc(C(=O)NS(=O)(=O)c4ccc(N[C@H](CCN5CCOCC5)CSc5ccccc5)c(S(=O)(=O)C(F)(F)F)c4)cc3)CC2)C1 [Navitoclax] (partner 0.5 µM)
The procedure, abridged:
as §1

Compound in the assay “CUDC-101 + Foretinib”: C#Cc1cccc(Nc2ncnc3cc(OC)c(OCCCCCCC(=O)NO)cc23)c1 [CUDC-101] + COc1cc2c(Oc3ccc(NC(=O)C4(C(=O)Nc5ccc(F)cc5)CC4)cc3F)ccnc2cc1OCCCN1CCOCC1 [Foretinib] (partner 0.25 µM)
The procedure, abridged:
as §1

Compound in the assay “Vandetanib + Dasatinib”: COc1cc2/c(=N/c3ccc(Br)cc3F)nc[nH]c2cc1OCC1CCN(C)CC1 [Vandetanib] + Cc1nc(Nc2ncc(C(=O)Nc3c(C)cccc3Cl)s2)cc(N2CCN(CCO)CC2)n1 [Dasatinib] (partner 0.075 µM)
A digest of the protocol: as §1

On to UMC-11, for which the relative viability with CUDC-101 + Pictilisib (first compound 0.01 µM) was found to be 0.857; with CUDC-101 + Pictilisib (first compound 0.03162 µM), 0.775; with CUDC-101 + Pictilisib (first compound 0.1 µM) it was 0.679; in the assay with CUDC-101 + Pictilisib (first compound 0.3162 µM), 0.575; in the assay with CUDC-101 + Pictilisib (first compound 1 µM), 0.108; in assay [1] (first compound 0.005 µM), 0.28. The relative viability in assay [1] (first compound 0.01581 µM) worked out at 0.304; in assay [1] (first compound 0.05 µM), 0.294; in assay [1] (first compound 0.1581 µM), 0.307; in assay [1] (first compound 0.5 µM) it was 0.306; with CUDC-101 + Foretinib (first compound 0.01 µM) it was 1.06; with CUDC-101 + Foretinib (first compound 0.03162 µM) it was 1.03. Further, the relative viability with CUDC-101 + Foretinib (first compound 0.1 µM) worked out at 0.945; in the assay with CUDC-101 + Foretinib (first compound 0.3162 µM), 0.317; with CUDC-101 + Foretinib (first compound 1 µM), 0.106; with Vandetanib + Dasatinib (first compound 0.02 µM) it was 0.442; in the assay with Vandetanib + Dasatinib (first compound 0.06325 µM), 0.422; with Vandetanib + Dasatinib (first compound 0.2 µM) it was 0.43. Moreover, the relative viability in the assay with Vandetanib + Dasatinib (first compound 0.6325 µM) came out at 0.497; in the assay with Vandetanib + Dasatinib (first compound 2 µM) it was 0.462.
